# Reference: patent US20260041744A1, “Methods for Treating Pompe Disease” (Amicus Therapeutics, Inc., priority 2022, published 2026)
# Entries after “also recorded” stand apart in the source; their conditions may differ.
# How the values were obtained:
# Gaa KO mice = assay: Tissue glycogen content in Gaa KO mice (amyloglucosidase digestion); assay type: in vivo, mouse; details: 20 mg/kg ATB200 IV + 10 mg/kg miglustat PO, 6 biweekly administrations
# Experimental: The therapeutic effects of ATB200 and miglustat were evaluated and compared against those of Alglucosidase alfa in Gaa KO mice. For the study, male Gaa KO (3-to 4-month old) and age-matched wild-type (WT) mice were used. Alglucosidase alfa was administered via bolus tail vein intravenous (IV) injection. In the co-administration regimen, miglustat was administered via oral gavage (PO) 30 minutes prior to the IV injection of ATB200. Treatment was given biweekly. Treated mice were sacrificed after 14 days from the last administration and various tissues were collected for further analysis. Table 11 summarizes the study design:
# Tissue glycogen content in tissues samples was determined using amyloglucosidase digestion, as discussed above.
# [1] = system: adults with Pompe disease; assay: Study ATB200-02: sitting % predicted FVC; details: for FVC change from baseline, mean: Cohort 2 (non-ambulatory ERT-experienced)
# Experimental: Four cohorts of patients with Pompe disease were enrolled in the ATB200-02 study: • Cohort 1: ERT-experienced, aged 18-65 years, with 2-6 years prior ERT with 20 mg/kg alglucosidase alfa every 2 weeks (n=11) • Cohort 2: Non-ambulatory ERT-experienced, aged 18-65 years, with ≥2 years prior ERT with 20 mg/kg alglucosidase alfa every 2 weeks (n=6)· • Cohort 3: ERT-naïve, aged 18-65 years (n=6). • Cohort 4: ERT-experienced, aged 18-75 years, with ≥7 years prior ERT with 20 mg/kg alglucosidase alfa every 2 weeks (n=6)
# The change from baseline (CFBL) in 6MWD, % predicted sitting FVC, manual muscle test (MMT) and biomarkers—urine glucose tetrasaccharide (Hex4) and serum creatine kinase (CK)—were assessed at regular intervals. Data with up to 36 months of follow-up in ERT-experienced and ERT-naïve patients is provided herein. […] Due to the staggered timing of patient enrollment, the number of patients with data currently available decreases at later time-points in this ongoing study.
# [2] = system: adult subjects with Pompe disease; assay: Pooled Studies ATB200-02/03/07: MMT lower extremity score by exposure interval
# [3] = system: adult subjects with late-onset Pompe disease (LOPD); assay: Study ATB200-03 (PROPEL): sitting % predicted FVC; assay type: in vivo, human; details: for absolute decline in percent-predicted FVC: 52 weeks; for CHG to Week 52 in sitting % predicted FVC, LS Mean: MMRM, actual time point of assessments; for Sitting % predicted FVC CHG, LS means (SE): Week 52, ANCOVA
# Experimental: The test for the primary endpoint was conducted first at the 1-sided 0.025 significance level, and if significant, the ordered key secondary endpoints were similarly tested at the same significance level. The statistical significance of the key secondary endpoints was interpreted following a hierarchical testing order, each at the 1-sided alpha level of 0.025. […] Primary analyses of efficacy were performed using the mixed-effect model for repeated measures (MMRM) for 6MWD in Intent-to-treat Observed Population (ITT) that includes all available, observed data without any missing data imputation (ITT-OBS) and analysis of covariance (ANCOVA) for all other endpoints in the Intent-to-Treat-Last Observation Carried Forward (ITT-LOCF) Population. A nonparametric randomization based ANCOVA was specified as the first sensitivity analysis for 6MWD and FVC. […] For the purposes of data presentation in this document, 2-sided p-values are reported hereafter, except as otherwise noted.
# [4] = Cohort 1 + Cohort 3 + Cohort 4, Month 12
# [5] = Cohort 1 + Cohort 3 + Cohort 4, Month 24
# [6] = Cohort 1 + Cohort 3 + Cohort 4, Month 36
# [7] = Cohort 1 + Cohort 3 + Cohort 4, Month 48
# [8] = Baseline, ITT, ERT-naïve Population excluding Subject 4005-2511
# [9] = Week 52-LOCF, ERT-experienced Population
# [10] = Week 52-LOCF, ERT-naïve Population excluding Subject 4005-2511
# [11] = Week 52-LOCF, ITT excluding Subject 4005-2511
substance,measurement,setting,value
"ATB200/miglustat: two-component therapy: cipaglucosidase alfa (ATB200) administered in conjunction with miglustat (AT2221), a stabilizer of cipaglucosidase alfa",tissue glycogen content vs alglucosidase alfa,Gaa KO mice,"significantly decreased the glycogen content in four different tissues (quadriceps, triceps, gastrocnemius, and heart) as compared to the same dosage of alglucosidase alfa"
same,"Percent predicted sitting FVC, CFBL mean","[1]; Ambulatory ERT-experienced, 12 months",−1.2
same,"Percent predicted sitting FVC, CFBL mean","[1]; Ambulatory ERT-experienced, 24 months",1.0
same,"Percent predicted sitting FVC, CFBL mean","[1]; Ambulatory ERT-experienced, 36 months",−0.3
same,"Percent predicted sitting FVC, CFBL mean","[1]; Ambulatory ERT-experienced, 48 months",1.0
same,"Percent predicted sitting FVC, CFBL mean","[1]; Ambulatory ERT-naïve, 12 months",3.2
same,"Percent predicted sitting FVC, CFBL mean","[1]; Ambulatory ERT-naïve, 24 months",4.7
same,"Percent predicted sitting FVC, CFBL mean","[1]; Ambulatory ERT-naïve, 36 months",6.2
same,"Percent predicted sitting FVC, CFBL mean","[1]; Ambulatory ERT-naïve, 48 months",8.3
same,"sitting % predicted FVC change from baseline, mean",[1]; [4],0.0%
same,"sitting % predicted FVC change from baseline, median",[1]; [4],−0.5%
same,"sitting % predicted FVC change from baseline, mean",[1]; [5],2.2%
same,"sitting % predicted FVC change from baseline, median",[1]; [5],2.0%
same,"sitting % predicted FVC change from baseline, mean",[1]; [6],1.9%
same,"sitting % predicted FVC change from baseline, median",[1]; [6],2.0%
same,"sitting % predicted FVC change from baseline, mean",[1]; [7],3.9%
same,"sitting % predicted FVC change from baseline, median",[1]; [7],4.5%
same,"sitting % predicted FVC change from baseline, mean","[1]; Cohort 1 + Cohort 4 (ERT-experienced), Month 12, listed as cipaglucosidase alfa/miglustat",−1.2%
same,"sitting % predicted FVC change from baseline, mean","[1]; Cohort 1 + Cohort 4 (ERT-experienced), Month 36",−0.3%
same,"sitting % predicted FVC change from baseline, median","[1]; Cohort 1 + Cohort 4, Month 12",−1.0%
same,"sitting % predicted FVC change from baseline, median","[1]; Cohort 1 + Cohort 4, Month 24",1.0%
same,"sitting % predicted FVC change from baseline, median","[1]; Cohort 1 + Cohort 4, Month 36",−1.5%
same,"sitting % predicted FVC change from baseline, median","[1]; Cohort 1 + Cohort 4, Month 48",3.5%
same,"FVC change from baseline, mean",[1]; month 12,+2.5%
same,"FVC change from baseline, mean",[1]; month 24,+2.0%
same,"FVC change from baseline, mean",[1]; month 36,−2.0%
same,"FVC change from baseline, mean",[1]; month 48,−1.0%
same,"sitting % predicted FVC change from baseline, mean","[1]; Cohort 3 (ERT-naïve), Month 12",3.2%
same,"sitting % predicted FVC change from baseline, mean","[1]; Cohort 3 (ERT-naïve), Month 24",4.7%
same,"sitting % predicted FVC change from baseline, mean","[1]; Cohort 3 (ERT-naïve), Month 36",6.2%
same,"sitting % predicted FVC change from baseline, mean","[1]; Cohort 3 (ERT-naïve), Month 48",8.3%
same,"sitting % predicted FVC change from baseline, median","[1]; Cohort 3, Month 12",4.5%
same,"sitting % predicted FVC change from baseline, median","[1]; Cohort 3, Month 24",4.0%
same,"sitting % predicted FVC change from baseline, median","[1]; Cohort 3, Month 36",5.0%
same,"sitting % predicted FVC change from baseline, median","[1]; Cohort 3, Month 48",9.5%
same,patients whose FVC improved (>3%) or remained stable (±3%) from baseline (n/N),"[1]; ERT-experienced, 12 months",9/16
same,patients whose FVC improved (>3%) or remained stable (±3%) from baseline (n/N),"[1]; ERT-experienced, 24 months",11/13
same,patients whose FVC improved (>3%) or remained stable (±3%) from baseline (n/N),"[1]; ERT-experienced, 36 months",8/10
same,patients whose FVC improved (>3%) or remained stable (±3%) from baseline (n/N),"[1]; ERT-experienced, 48 months",4/6
same,patients with improvement (CFBL >3% points) in % predicted sitting FVC,"[1]; ERT-experienced, Month 48",66.7%
same,patients whose FVC improved (>3%) or remained stable (±3%) from baseline (n/N),"[1]; ERT-naïve, 12 months",5/6
same,patients whose FVC improved (>3%) or remained stable (±3%) from baseline (n/N),"[1]; ERT-naïve, 24 months",6/6
same,patients whose FVC improved (>3%) or remained stable (±3%) from baseline (n/N),"[1]; ERT-naïve, 36 months",5/5
same,patients whose FVC improved (>3%) or remained stable (±3%) from baseline (n/N),"[1]; ERT-naïve, 48 months",4/4
same,patients with improvement (CFBL >3% points) in % predicted sitting FVC,"[1]; ERT-naïve, Month 48",75%
same,"Percent predicted sitting FVC, CFBL mean","[1]; Non-ambulatory ERT-experienced, 12 months",2.5
same,"Percent predicted sitting FVC, CFBL mean","[1]; Non-ambulatory ERT-experienced, 24 months",2.0
same,"Percent predicted sitting FVC, CFBL mean","[1]; Non-ambulatory ERT-experienced, 36 months",−2.0
same,"Percent predicted sitting FVC, CFBL mean","[1]; Non-ambulatory ERT-experienced, 48 months",−1.0
same,% predicted FVC outcome (words; cohort in the words),"[1]; up to 48 months, listed as cipaglucosidase alfa/miglustat","stable or improved % predicted FVC for ERT-experienced subjects (Cohorts 1 and 4), ERT-naïve subjects (Cohort 3), and overall (Cohorts 1, 3, and 4); also recorded: For Cohort 2 (non-ambulatory subjects), sitting % predicted FVC was stable in 2 subjects with available data out to 36 months"
same,mean (SD) change from baseline in MMT lower extremity score,[2]; exposure >15 to ≤24 months (n=101),1.73 (3.675)
same,mean (SD) change from baseline in MMT lower extremity score,[2]; exposure >24 months (n=65),1.98 (4.527)
same,mean (SD) change from baseline in MMT lower extremity score,[2]; exposure ≤15 months (n=135),1.36 (3.807)
alglucosidase alfa [reference compound],"Sitting % Predicted FVC Absolute Value, Mean",[3]; [8],79.07 % predicted
same,"Sitting % predicted FVC Absolute Value, Median",[3]; [8],93.50 % predicted
same,FVC (% predicted) CFBL at Week 52,[3]; ERT switch (ERT-experienced) population,−4.0 (0.9) % predicted
same,FVC (% predicted) CFBL at Week 52,[3]; ERT treatment naive population,−3.6 % predicted
same,FVC (% predicted) CFBL at Week 52,"[3]; ERT treatment naive population, listed as Alglucosidase alfa",−3.6 (1.8) % predicted
same,absolute decline in percent-predicted FVC,[3]; ERT-experienced,4.0%
same,mean change in sitting % predicted FVC from baseline to Week 52,[3]; ERT-naïve excluding Subject 4005-2511,−3.6%
same,"Change in sitting % predicted FVC baseline to Week 52, LS means (SE) from ANCOVA","[3]; ITT-LOCF, ERT-naïve Population excluding Subject 4005-2511",−2.54 (2.758) % predicted
same,"CHG to Week 52 in sitting % predicted FVC, LS Mean",[3]; ITT-OBS excluding Subject 4005-2511 (overall),−3.7
same,"CHG to Week 52 in sitting % predicted FVC, LS Mean","[3]; ITT-OBS excluding Subject 4005-2511, ERT-naïve Subjects",−2.4
same,"CHG to Week 52 in sitting % predicted FVC, LS Mean","[3]; ITT-OBS, ERT-experienced Subjects",−3.8
same,"Sitting % predicted FVC Absolute Value, Mean (SD)",[3]; [9],63.47 (20.480) % predicted
same,"Sitting % predicted FVC Absolute Value, Median",[3]; [9],62.00 % predicted
same,"Sitting % predicted FVC CHG, Mean (SD)",[3]; [9],−4.02 (5.009) % predicted
same,"Sitting % predicted FVC CHG, Median",[3]; [9],−3.25 % predicted
same,"Sitting % Predicted FVC Absolute Value, Mean",[3]; [10],75.43 % predicted
same,"Sitting % Predicted FVC CHG (change from baseline), Mean",[3]; [10],−3.64 % predicted
same,"Sitting % Predicted FVC CHG (change from baseline), Median",[3]; [10],−3.00 % predicted
same,"Sitting % predicted FVC Absolute Value, Median",[3]; [10],85.00 % predicted
same,"Sitting % predicted FVC Absolute Value, Mean (SD)",[3]; [11],65.73 (21.109) % predicted
same,"Sitting % predicted FVC Absolute Value, Median",[3]; [11],69.00 % predicted
same,"Sitting % predicted FVC CHG, Mean (SD)",[3]; [11],−3.95 (4.892) % predicted
same,"Sitting % predicted FVC CHG, Median",[3]; [11],−3.00 % predicted
same,"Sitting % predicted FVC CHG, LS means (SE)",[3]; ITT-LOCF excluding Subject 4005-2511,−3.70 (0.953) % predicted
same,"Sitting % predicted FVC CHG, LS means (SE)","[3]; ITT-LOCF, ERT-experienced Population",−3.64 (1.019) % predicted
same,FVC (% predicted) CFBL at Week 52,[3]; overall ERT switch + ERT naïve population,−4.0 (0.8) % predicted
same,absolute decline in percent-predicted FVC,[3]; overall population,4.0%
